Patent US8916567B2, “Certain crystalline hydrates, pharmaceutical compositions thereof and methods for preparation and use thereof” (Universal Technology Alliance, Inc., priority 2009, dated 2014)
≈ marks a conversion by molar mass, not a printed value.

Key:
Format in all cases: cell-based
E. feacalis = experiment: Minimum inhibitory concentration (MIC) in vitro, agar dilution method
Text: (§1) Hydrates Samples: • The 1/2 hydrates prepared according to Example 2; • Content (purity % wt): 99.0%; • The 1/12 hydrates prepared according to Example 253; • Content (purity % wt): 98.9%; • The 2/7 hydrates prepared according to Example 106; • Content (purity % wt): 98.8%; • The 2/5 hydrates prepared according to Example 162; • Content (purity % wt): 99.0%; • The 3/4 hydrates prepared according to Example 337; • Content (purity % wt): 98.8%; • Preparation: dissolved in DMSO, and further diluted with sterile distilled water to desired concentration. • The hydrates samples were supplied by Sichuan Beilike Biotechnology LTD.
(§2) Anhydrous Sample: • The anhydrous compounds prepared according to Example 1. • Content (purity % wt): 98.6%; • Preparation: dissolved in DMSO, and further diluted with sterile distilled water to desired concentration; • The anhydrous sample was supplied by Sichuan Beilike Biotechnology LTD.
(§3) Control Samples • Vancomycin: provided by Sichuan Beilike Biotechnology LTD, purchased from Eli Lilly Japan K.K. • Lot No.: WM16151 (production date: Apr. 10, 2007, expiration date: Apr. 9, 2009). • Specification: 500 mg/bottle; solubility (physicochemical properties): soluble in water. • Linezolid (LZ): provided by Sichuan Beilike Biotechnology LTD.
(§4) Bacteria Strains • Clinically isolated strains: clinically isolated bacterial pathogens collected in Sichuan and Beijing areas from March 2007 to May 2008. • Species include: Staphylococcus aureus MRSA, Staphylococcus aureus MSSA, S. epidermidis MRSE, S. epidermidis MSSE, E. feacalis, and E. feacium, a total of 51 strains. • Quality control strains: Staphylococcus aureus […] strain kept in Sichuan Industrial Institute of Antibiotics, purchased from the medical testing center of the Ministry of Health, China.
(§5) Experimental Method: • Measurement of the minimum inhibitory concentration (MIC) in vitro: • The minimum inhibitory concentration (MIC) of each test sample against test strains was measured by using the agar dilution method recommended by the U.S. National Committee for Clinical Laboratory Standards (CLSI/NCCIs).
(§6) Based on the CLSI/NCCL's testing standard with respect to vancomycin and linezolid (see Table 6), the minimum inhibitory concentration (MIC) values of every strain were reported, and the MIC50 (the concentration that inhibits 50% of the different strains of bacteria), MIC90 (the concentration that inhibits 90% of the different strains of bacteria), and MICrange (the range of the MIC value of the tested strains) were observed.

E. feacium = experiment: as above
Text: as §1, §2, §3, §4, §5, §6

S. epidermidis MRSE = experiment: as above
Text: as §1, §2, §3, §4, §5, §6

S. epidermidis MSSE = experiment: as above
Text: as §1, §2, §3, §4, §5, §6

[1] = test system: Staphylococcus aureus MRSA; experiment: as above
Text: as §1, §2, §3, §4, §5, §6

[2] = test system: Staphylococcus aureus MSSA; experiment: as above
Text: as §1, §2, §3, §4, §5, §6

Staphylococcus aureus = experiment: Minimum inhibitory concentration (MIC) in vitro, agar dilution method, quality control strain; conditions: Staphylococcus aureus, ATCC27853
Text: as §1, §2, §3, §4, §5, §6

[3] = Staphylococcus epidermidis, MRSE

CN[C@H](CC(C)C)C(=O)N[C@H]1C(=O)N[C@@H](CC(N)=O)C(=O)N[C@H]2C(=O)N[C@H]3C(=O)N[C@H](C(=O)N[C@H](C(=O)O)c4cc(O)cc(O)c4-c4cc3ccc4O)[C@H](O)c3ccc(c(Cl)c3)Oc3cc2cc(c3O[C@@H]2O[C@H](CO)[C@@H](O)[C@H](O)[C@H]2O[C@H]2C[C@](C)(N)[C@H](O)[C@H](C)O2)Oc2ccc(cc2Cl)[C@H]1O [Vancomycin, reference compound]
MIC50 (E. feacalis): 1 µg/mL (≈ 0.69 µM) | MIC90 (E. feacalis): 2 µg/mL (≈ 1.38 µM) | MICrange (E. feacalis; E. feacalis (5 strains), clinically isolated): 0.25 to 2 µg/mL | MIC (E. feacalis; strain Efa 54 (Table 8 No. 20)): 1 µg/mL (≈ 0.69 µM) | MIC (E. feacalis; strain Efa 116 (Table 8 No. 16)): 0.5 µg/mL (≈ 0.345 µM) | MIC (E. feacalis; strain Efa 907 (Table 8 No. 19)): 1 µg/mL (≈ 0.69 µM) | MIC (E. feacalis; strain Efa 3006 (Table 8 No. 18)): 2 µg/mL (≈ 1.38 µM) | MIC (E. feacalis; strain Efa 33748 (Table 8 No. 17)): 0.25 µg/mL (≈ 0.173 µM) | MIC50 (E. feacium): 4 µg/mL (≈ 2.76 µM) | MIC90 (E. feacium): 8 µg/mL (≈ 5.52 µM) | MICrange (E. feacium; E. feacium (5 strains), clinically isolated): 2 to 8 µg/mL | MIC (E. feacium; strain Efm 98 (Table 8 No. 21)): 4 µg/mL (≈ 2.76 µM) | MIC (E. feacium; strain Efm 171 (Table 8 No. 25)): 8 µg/mL (≈ 5.52 µM) | MIC (E. feacium; strain Efm 197 (Table 8 No. 22)): 4 µg/mL (≈ 2.76 µM) | MIC (E. feacium; strain Efm N3 (Table 8 No. 23)): 2 µg/mL (≈ 1.38 µM) | MIC (E. feacium; strain Efm N4 (Table 8 No. 24)): 8 µg/mL (≈ 5.52 µM) | MICrange (S. epidermidis MRSE; S. ep MRSE (10 strains), clinically isolated): 0.25 to 1 µg/mL | MIC50 (S. epidermidis MRSE; [3]): 1 µg/mL (≈ 0.69 µM) | MIC90 (S. epidermidis MRSE; [3]): 1 µg/mL (≈ 0.69 µM) | MIC (S. epidermidis MRSE; Staphylococcus epidermidis, MRSE, strain S. ep MRSE4 (Table 8 No. 9)): 1 µg/mL (≈ 0.69 µM) | MIC (S. epidermidis MRSE; Staphylococcus epidermidis, MRSE, strain S. ep MRSE20 (Table 8 No. 6)): 1 µg/mL (≈ 0.69 µM) | MIC (S. epidermidis MRSE; Staphylococcus epidermidis, MRSE, strain S. ep MRSE87 (Table 8 No. 13)): 0.25 µg/mL (≈ 0.173 µM) | MIC (S. epidermidis MRSE; Staphylococcus epidermidis, MRSE, strain S. ep MRSE90 (Table 8 No. 10)): 1 µg/mL (≈ 0.69 µM) | MIC (S. epidermidis MRSE; Staphylococcus epidermidis, MRSE, strain S. ep MRSE101 (Table 8 No. 7)): 1 µg/mL (≈ 0.69 µM) | MIC (S. epidermidis MRSE; Staphylococcus epidermidis, MRSE, strain S. ep MRSE105 (Table 8 No. 11)): 0.5 µg/mL (≈ 0.345 µM) | MIC (S. epidermidis MRSE; Staphylococcus epidermidis, MRSE, strain S. ep MRSE140 (Table 8 No. 14)): 1 µg/mL (≈ 0.69 µM) | MIC (S. epidermidis MRSE; Staphylococcus epidermidis, MRSE, strain S. ep MRSE142 (Table 8 No. 12)): 0.5 µg/mL (≈ 0.345 µM) | MIC (S. epidermidis MRSE; Staphylococcus epidermidis, MRSE, strain S. ep MRSE210 (Table 8 No. 15)): 1 µg/mL (≈ 0.69 µM) | MIC (S. epidermidis MRSE; Staphylococcus epidermidis, MRSE, strain S. ep MRSE211 (Table 8 No. 8)): 0.5 µg/mL (≈ 0.345 µM) | MICrange (S. epidermidis MSSE; S. ep MSSE (10 strains), clinically isolated): 0.06 to 1 µg/mL | MIC50 (S. epidermidis MSSE; Staphylococcus epidermidis): 0.5 µg/mL (≈ 0.345 µM) | MIC90 (S. epidermidis MSSE; Staphylococcus epidermidis): 1 µg/mL (≈ 0.69 µM) | MIC (S. epidermidis MSSE; Staphylococcus epidermidis, strain S. ep MSSE87 (Table 7 No. 23)): 0.125 µg/mL (≈ 0.0863 µM) | MIC (S. epidermidis MSSE; Staphylococcus epidermidis, strain S. ep MSSE88 (Table 8 No. 5)): 1 µg/mL (≈ 0.69 µM) | MIC (S. epidermidis MSSE; Staphylococcus epidermidis, strain S. ep MSSE113 (Table 7 No. 24)): 0.5 µg/mL (≈ 0.345 µM) | MIC (S. epidermidis MSSE; Staphylococcus epidermidis, strain S. ep MSSE116 (Table 7 No. 25)): 0.125 µg/mL (≈ 0.0863 µM) | MIC (S. epidermidis MSSE; Staphylococcus epidermidis, strain S. ep MSSE118 (Table 8 No. 2)): 1 µg/mL (≈ 0.69 µM) | MIC (S. epidermidis MSSE; Staphylococcus epidermidis, strain S. ep MSSE119 (Table 7 No. 27)): 0.125 µg/mL (≈ 0.0863 µM) | MIC (S. epidermidis MSSE; Staphylococcus epidermidis, strain S. ep MSSE137 (Table 8 No. 4)): 1 µg/mL (≈ 0.69 µM) | MIC (S. epidermidis MSSE; Staphylococcus epidermidis, strain S. ep MSSE140 (Table 8 No. 3)): 0.5 µg/mL (≈ 0.345 µM) | MIC (S. epidermidis MSSE; Staphylococcus epidermidis, strain S. ep MSSE142 (Table 7 No. 26)): 0.06 µg/mL (≈ 0.0414 µM) | MIC (S. epidermidis MSSE; Staphylococcus epidermidis, strain S. ep MSSE153 (Table 8 No. 1)): 0.5 µg/mL (≈ 0.345 µM) | MICrange ([1]; S. MRSA (10 strains), clinically isolated): 0.5 to 1 µg/mL | MIC50 ([1]; Staphylococcus aureus, MRSA): 1 µg/mL (≈ 0.69 µM) | MIC90 ([1]; Staphylococcus aureus, MRSA): 1 µg/mL (≈ 0.69 µM) | MIC ([1]; Staphylococcus aureus, MRSA, strain S. MRSA 29 (Table 7 No. 15)): 0.5 µg/mL (≈ 0.345 µM) | MIC ([1]; Staphylococcus aureus, MRSA, strain S. MRSA 101 (Table 7 No. 14)): 0.5 µg/mL (≈ 0.345 µM) | MIC ([1]; Staphylococcus aureus, MRSA, strain S. MRSA 201 (Table 7 No. 13)): 1 µg/mL (≈ 0.69 µM) | MIC ([1]; Staphylococcus aureus, MRSA, strain S. MRSA B27 (Table 7 No. 21)): 1 µg/mL (≈ 0.69 µM) | MIC ([1]; Staphylococcus aureus, MRSA, strain S. MRSA B105 (Table 7 No. 17)): 1 µg/mL (≈ 0.69 µM) | MIC ([1]; Staphylococcus aureus, MRSA, strain S. MRSA B143 (Table 7 No. 19)): 0.5 µg/mL (≈ 0.345 µM) | MIC ([1]; Staphylococcus aureus, MRSA, strain S. MRSA B151 (Table 7 No. 20)): 1 µg/mL (≈ 0.69 µM) | MIC ([1]; Staphylococcus aureus, MRSA, strain S. MRSA B164 (Table 7 No. 16)): 1 µg/mL (≈ 0.69 µM) | MIC ([1]; Staphylococcus aureus, MRSA, strain S. MRSA B199 (Table 7 No. 22)): 1 µg/mL (≈ 0.69 µM) | MIC ([1]; Staphylococcus aureus, MRSA, strain S. MRSA B617 (Table 7 No. 18)): 5 µg/mL (≈ 3.45 µM) | MICrange ([2]; S. MSSA (11 strains), clinically isolated): 0.5 to 1 µg/mL | MIC50 ([2]; Staphylococcus aureus, MSSA): 1 µg/mL (≈ 0.69 µM) | MIC90 ([2]; Staphylococcus aureus, MSSA): 1 µg/mL (≈ 0.69 µM) | MIC ([2]; Staphylococcus aureus, MSSA, strain S. MSSA 123 (Table 7 No. 3)): 0.5 µg/mL (≈ 0.345 µM) | MIC ([2]; Staphylococcus aureus, MSSA, strain S. MSSA 187 (Table 7 No. 7)): 0.5 µg/mL (≈ 0.345 µM) | MIC ([2]; Staphylococcus aureus, MSSA, strain S. MSSA 195 (Table 7 No. 6)): 1 µg/mL (≈ 0.69 µM) | MIC ([2]; Staphylococcus aureus, MSSA, strain S. MSSA 195 (Table 7 No. 12)): 1 µg/mL (≈ 0.69 µM) | MIC ([2]; Staphylococcus aureus, MSSA, strain S. MSSA 201 (Table 7 No. 11)): 1 µg/mL (≈ 0.69 µM) | MIC ([2]; Staphylococcus aureus, MSSA, strain S. MSSA 232 (Table 7 No. 2)): 0.5 µg/mL (≈ 0.345 µM) | MIC ([2]; Staphylococcus aureus, MSSA, strain S. MSSA 275 (Table 7 No. 10)): 1 µg/mL (≈ 0.69 µM) | MIC ([2]; Staphylococcus aureus, MSSA, strain S. MSSA 466 (Table 7 No. 8)): 0.5 µg/mL (≈ 0.345 µM) | MIC ([2]; Staphylococcus aureus, MSSA, strain S. MSSA 519 (Table 7 No. 9)): 1 µg/mL (≈ 0.69 µM) | MIC ([2]; Staphylococcus aureus, MSSA, strain S. MSSA 520 (Table 7 No. 4)): 0.5 µg/mL (≈ 0.345 µM) | MIC ([2]; Staphylococcus aureus, MSSA, strain S. MSSA 580 (Table 7 No. 5)): 1 µg/mL (≈ 0.69 µM) | MIC (Staphylococcus aureus): 1 µg/mL (≈ 0.69 µM)
